Structures can show the parent of a compound that is named as a salt. Where two headings read alike, the source gives them in different places.
What was measured:
[1] = tested on: NRF2-ARE pathway in the CHO 4× ARE-TK cell line; assay: ARE reporter assay in CHO 4×ARE-TK-GFP cell line (GFP induction, EthD1 toxicity); conditions: for maximal fold induction: read-out: Average fold GFP induction at maximal response
Procedure: Chinese Hamster Ovary (CHO), NSC34 mouse motor neuronal cells, C6 (rat) and 1321N1 (human) astrocytic lines were routinely maintained in DMEM supplemented with 10% FBS and penicillin/streptomycin. […] These plasmids were transfected into CHO, C6 and 1321N1 cell lines using Lipofectamine 2000 (Invitrogen) and following 10-14 days of selection in 0.5 mg/ml G418 they were expanded and selected for basal eGFP expression using fluorescence activated cell sorting (BD, FACSAria) with two sequential cell sorts for each cell line. These mixed populations of stable transfectants with basal eGFP expression were used in subsequent assays and designated 4×ARE-TK-GFP for the ARE containing line and TK-GFP for the control cell line. […]
Confluent cultures of 4×ARE-TK-GFP CHO or TK-GFP CHO expressing cells in 96 or 384-well tissue-culture plates were treated with drug (0.01-100 µM in triplicate) or vehicle (0.1-1% DMSO) in FCS-free DMEM in triplicate for 24 hours. The media was removed and replaced with the same volume of PBS containing 0.3 μM EthD1. […] Non-linear regression was used to fit a sigmoidal dose-response curve on a semi-Log plot to calculate the EC50 using GraphPad Prism (GraphPad Software). The reporter assay was conducted in a similar fashion in C6 and 1321N1 astrocyte cell lines stably transfected with the 4×ARE-TK-GFP and TK-GFP constructs except that Eth D1 was added directly in the media and read prior to washing the cells once and reading the […] signal. […]
The compounds were applied in triplicate to confluent cells in 96 well plates in serum free medium for 24 hours and the induction of GFP measured in a fluorescence plate reader. […]

[2] = tested on: 1321N1 (human) astrocytic line; assay: 1321N1 oxidative stress assay (serum withdrawal, DCF); conditions: for Maximal % reduction in Oxidative stress: 1321N1, DCF fluorescence; for Lowest dose with toxicity: 1321N1; for IC50: 1321N1, 24 h pre-treatment, serum withdrawal, DCF
Procedure: (§1) A simple oxidative stress assay was used to determine whether preconditioning with NRF2-ARE inducing drugs could protect against a subsequent oxidative stress insult (serum withdrawal). The NSC34, C6 and 1321N1 cells were plated in 96 well tissue culture plates to achieve 30% confluency. […] Media was then replaced with serum free, phenol free media for 5 hrs. […] Cell survival assay was then performed on the cells as protection is measured as % reduction in DCF signal, therefore data points were excluded where a decrease in cell number was measured.
(§2) Briefly methylthiazolyldiphenyl-tetrazolium bromide (MTT) was added to the cells and a blank well to a final concentration 0.5 mg/ml and incubated at 37° C. for 1-3 hrs depending on the cell line used.

[3] = tested on: NSC34 mouse motor neuronal cells; assay: NSC34 oxidative stress assay (serum withdrawal, DCF); conditions: for Maximal % reduction in Oxidative stress: NSC34, DCF fluorescence, negative = pro-oxidant; for Lowest dose with toxicity: NSC34
Procedure: as §1, §2

[4] = tested on: C6 (rat) astrocytic line; assay: C6 oxidative stress assay (serum withdrawal, DCF); conditions: for IC50: C6, 24 h pre-treatment, serum withdrawal, DCF; for Maximal % reduction in Oxidative stress: C6, DCF fluorescence; for Lowest dose with toxicity: C6
Procedure: as §1, §2

[5] = read-out: Average EC50, CHO 4×ARE-TK-GFP, GFP induction, 24 h
[6] = Cricetulus griseus, 24 h, read-out: Average EC50, CHO 4×ARE-TK-GFP, GFP induction, 24 h
[7] = Cricetulus griseus, 24 h, read-out: Average EC50

## 3-alpha-hydroxygedinin
[1]; CHO 4×ARE-TK-GFP, 24 h
  Average fold GFP induction at maximal response: 3.01 fold
[1]; CHO ARE reporter assay
  Lowest dose with toxicity: 100 µM
[2]
  Maximal % reduction in Oxidative stress: 25%
[3]
  Maximal % reduction in Oxidative stress: 14%
[4]
  IC50: 3.22 µM
  Maximal % reduction in Oxidative stress: 42%

## 3β hydroxydeoxydesacetoxy-7-oxogedunin
[1]; CHO 4×ARE-TK-GFP, 24 h
  Average fold GFP induction at maximal response: 2.55 fold
[1]; CHO ARE reporter assay
  Lowest dose with toxicity: 30 µM
[1]; [5]
  EC50: 8.71 µM
[2]
  Lowest dose with toxicity: none
  IC50: 3.96 µM
  Maximal % reduction in Oxidative stress: 62%
[3]
  Lowest dose with toxicity: 3 µM
  Maximal % reduction in Oxidative stress: 0%
[4]
  Lowest dose with toxicity: none
  IC50: 3.07 µM
  Maximal % reduction in Oxidative stress: 67%

## Cc1[nH]c2ccccc2c1CN(C)C [2 methyl gramine]
[1]; CHO 4×ARE-TK-GFP, 24 h
  Average fold GFP induction at maximal response: 2.27 fold
[1]; CHO ARE reporter assay
  Lowest dose with toxicity: 100 µM
[1]; [5]
  EC50: 3 µM
[2]
  Lowest dose with toxicity: none
  IC50: 11 µM
  Maximal % reduction in Oxidative stress: 36%
[3]
  Lowest dose with toxicity: 3 µM
  Maximal % reduction in Oxidative stress: −30%
[4]
  Lowest dose with toxicity: none
  IC50: 32 µM
  Maximal % reduction in Oxidative stress: 36%

## COc1cc(O)c(C)c(O)c1 [2,6-dihydroxy-4-methoxytoluene]
[1]; Chinese hamster, 24 h
  Lowest dose with toxicity: 100 µM
[1]; Cricetulus griseus, 24 h
  maximal fold induction: 3.05
[2]
  Lowest dose with toxicity: none
[3]
  Lowest dose with toxicity: none
[4]
  Lowest dose with toxicity: 10 µM

## COc1cccc(O)c1O [3 methoxycatechol]
[1]; Chinese hamster, 24 h
  Lowest dose with toxicity: 100 µM
[1]; Cricetulus griseus, 24 h
  maximal fold induction: 3.28
[2]
  Lowest dose with toxicity: none
[3]
  Lowest dose with toxicity: 0.3 µM
[4]
  Lowest dose with toxicity: 10 µM

## Cc1cc(O)c(C)c(O)c1C(=O)O [3 methylorsellinic acid]
[1]; Chinese hamster, 24 h
  Lowest dose with toxicity: 100 µM
[1]; Cricetulus griseus, 24 h
  maximal fold induction: 2.87
[2]
  Lowest dose with toxicity: none
[3]
  Lowest dose with toxicity: 0.3 µM
[4]
  Lowest dose with toxicity: none

## CC(=O)Oc1ccc(O)cc1 [4 acetoxyphenol]
[1]; Chinese hamster, 24 h
  Lowest dose with toxicity: 100 µM
[1]; Cricetulus griseus, 24 h
  maximal fold induction: 2.78
[2]
  Lowest dose with toxicity: none
[3]
  Lowest dose with toxicity: none
[4]
  Lowest dose with toxicity: none

## O=C(/C=C/c1ccc(O)cc1)c1ccccc1 [4 hydroxychalcone]
[1]; CHO ARE reporter assay
  Lowest dose with toxicity: None
[1]; [6]
  EC50: 3.53 µM
[1]; Cricetulus griseus, 24 h
  maximal fold induction: 1.88

## COc1ccc(/C=C/C(=O)c2ccccc2)cc1 [4 methoxychalcone]
[1]; CHO ARE reporter assay
  Lowest dose with toxicity: 100 µM
[1]; [7]
  EC50: 15 µM
[1]; Cricetulus griseus, 24 h
  maximal fold induction: 2.13
[2]
  Lowest dose with toxicity: none
  IC50: 3.6 µM
[3]
  Lowest dose with toxicity: none
[4]
  Lowest dose with toxicity: none
  IC50: 3.55 µM

## C=CC(C1=CC(=O)C(OC)=CC1=O)c1ccccc1 (stereo not drawn) [4-Methoxydalbergione]
[1]; CHO 4×ARE-TK-GFP, 24 h
  Average fold GFP induction at maximal response: 2.11 fold
[1]; CHO ARE reporter assay
  Lowest dose with toxicity: 100 µM
[1]; [5]
  EC50: 11 µM
[2]
  Lowest dose with toxicity: none
  Maximal % reduction in Oxidative stress: 43%
[3]
  Lowest dose with toxicity: none
  Maximal % reduction in Oxidative stress: −44%
[4]
  Lowest dose with toxicity: none
  IC50: 2.5 µM
  Maximal % reduction in Oxidative stress: 14%

## CCc1cccc(CC)c1N(COC)C(=O)CCl [Alachlor]
[4]
  Lowest dose with toxicity: none

## COc1cc(O)cc(OC)c1OC [Antiarol]
[1]; Chinese hamster, 24 h
  Lowest dose with toxicity: 100 µM
[1]; Cricetulus griseus, 24 h
  maximal fold induction: 1.64
[2]
  Lowest dose with toxicity: none
[3]
  Lowest dose with toxicity: 10 µM
[4]
  Lowest dose with toxicity: 10 µM

## CN1CCc2cccc3c2[C@H]1Cc1ccc(O)c(O)c1-3 [Apomorphine hydrochloride, reference compound]
[1]; Chinese hamster, 24 h
  Lowest dose with toxicity: 100 µM
[1]; Cricetulus griseus, 24 h
  maximal fold induction: 1.9
[2]
  Lowest dose with toxicity: none
[3]
  Lowest dose with toxicity: 10 µM
[4]
  Lowest dose with toxicity: none

## S=C=NCc1ccccc1 [Benzyl Isothiocyanate]
[1]; CHO ARE reporter assay
  Lowest dose with toxicity: None
[1]; Cricetulus griseus, 24 h
  maximal fold induction: 1.81
[2]
  Lowest dose with toxicity: none
[3]
  Lowest dose with toxicity: none
[4]
  Lowest dose with toxicity: none

## ClC1=C(Cl)C2(Cl)C3C(Cl)C(Cl)CC3C1(Cl)C2(Cl)Cl (stereo not drawn) [Chlordane]
[1]; CHO ARE reporter assay
  Lowest dose with toxicity: 100 µM
[1]; [7]
  EC50: 9.18 µM
[1]; Cricetulus griseus, 24 h
  maximal fold induction: 1.56
[2]
  Lowest dose with toxicity: none
[3]
  Lowest dose with toxicity: 3 µM
[4]
  Lowest dose with toxicity: none
  IC50: 3.57 µM

## CC1=C2C(=CO[C@H](C)[C@H]2C)C(O)=C(C(=O)O)C1=O [Citrinin]
[1]; CHO ARE reporter assay
  Lowest dose with toxicity: 30 µM
[1]; [7]
  EC50: 4.1 µM
[1]; Cricetulus griseus, 24 h
  maximal fold induction: 3.26
[2]
  Lowest dose with toxicity: none
  IC50: 0.338 µM
[3]
  Lowest dose with toxicity: none
[4]
  Lowest dose with toxicity: none
  IC50: 20 µM

## C=CC(C1=CC(=O)C=CC1=O)c1ccccc1 (stereo not drawn) [Dalbergione]
[1]; Chinese hamster, 24 h
  Lowest dose with toxicity: 30 µM
[1]; Cricetulus griseus, 24 h
  maximal fold induction: 2.09
[2]
  Lowest dose with toxicity: none
[3]
  Lowest dose with toxicity: none
[4]
  Lowest dose with toxicity: none

## CC1(C)C(=O)C=C[C@]2(C)[C@H]3CC[C@@]4(C)[C@H](c5ccoc5)OC(=O)[C@H]5O[C@]54[C@]3(C)[C@H](O)C[C@@H]12 [Deacetylgedunin]
[1]; CHO ARE reporter assay
  Lowest dose with toxicity: 30 µM
[1]; [7]
  EC50: 3.5 µM
[1]; Cricetulus griseus, 24 h
  maximal fold induction: 3.05
[2]
  Lowest dose with toxicity: 10 µM
  IC50: 2.37 µM
[3]
  Lowest dose with toxicity: none
[4]
  Lowest dose with toxicity: none
  IC50: 5.36 µM

## CC1(C)C2CC(=O)O[C@@]3(C)C4=CC(=O)O[C@@H](c5ccoc5)[C@]4(C)CCC3[C@@]2(C)C=C[C@H]1O (stereo partly drawn) [Deoxyandirobin lactone]
[1]; Chinese hamster, 24 h
  Lowest dose with toxicity: 100 µM
[1]; Cricetulus griseus, 24 h
  maximal fold induction: 3.03
[2]
  Lowest dose with toxicity: none
[3]
  Lowest dose with toxicity: none
[4]
  Lowest dose with toxicity: none

## O=c1c2ccccc2[se]n1-c1ccccc1 [Ebselen, reference compound]
[1]; Chinese hamster, 24 h
  Lowest dose with toxicity: 100 µM
[1]; Cricetulus griseus, 24 h
  maximal fold induction: 2.81
[2]
  Lowest dose with toxicity: none
[3]
  Lowest dose with toxicity: none
[4]
  Lowest dose with toxicity: none

## C=C(CC)C(=O)c1ccc(OCC(=O)O)c(Cl)c1Cl [Ethacrynic acid, reference compound]
[1]; Chinese hamster, 24 h
  Lowest dose with toxicity: 100 µM
[3]
  Lowest dose with toxicity: 10 µM
[4]
  IC50: 3.01 µM

## CC(=O)O[C@@H]1CC2C(C)(C)C=CC(=O)[C@]2(C)C2CC[C@@]3(C)[C@H](c4ccoc4)OC(=O)C4OC43[C@@]21C (stereo partly drawn) [Isogedunin]
[1]; CHO 4×ARE-TK-GFP, 24 h
  Average fold GFP induction at maximal response: 3.11 fold
[1]; CHO ARE reporter assay
  Lowest dose with toxicity: None
[1]; [5]
  EC50: 550 µM
[2]
  Lowest dose with toxicity: none
  Maximal % reduction in Oxidative stress: 10%
[3]
  Lowest dose with toxicity: 1 µM
  Maximal % reduction in Oxidative stress: 0%

## O=C(/C=C/c1ccc(O)cc1)c1ccc(O)cc1O [Isoliquintigenin, Isoliquiritigenin]
[1]; Chinese hamster, 24 h
  Lowest dose with toxicity: 30 µM
[1]; Cricetulus griseus, 24 h
  maximal fold induction: 2.58
[2]
  Lowest dose with toxicity: none
[3]
  Lowest dose with toxicity: 1 µM
[4]
  Lowest dose with toxicity: none
  IC50: ~28 µM

## CC(COc1ccccc1)NC(C)C(O)c1ccc(O)cc1 (stereo not drawn) [Isoxsuprine hydrochloride, reference compound]
[1]; Chinese hamster, 24 h
  Lowest dose with toxicity: 100 µM
[1]; [6]
  EC50: 8.7 µM
[1]; Cricetulus griseus, 24 h
  maximal fold induction: 1.52
[2]
  Lowest dose with toxicity: none
[3]
  Lowest dose with toxicity: none
[4]
  Lowest dose with toxicity: none
  IC50: 23 µM

## CCCCCc1c2c(cc(O)c1C(=O)O)OC(=O)c1c(cc(OC)cc1C(=O)CCCC)O2 [Lobaric acid]
[1]; Chinese hamster, 24 h
  Lowest dose with toxicity: 100 µM
[1]; Cricetulus griseus, 24 h
  maximal fold induction: 2.53
[2]
  Lowest dose with toxicity: none
[3]
  Lowest dose with toxicity: none
[4]
  Lowest dose with toxicity: none

## O=C(CCBr)N1CCN(C(=O)CCBr)CC1 [Pipobroman, reference compound]
[1]; Chinese hamster, 24 h
  Lowest dose with toxicity: 100 µM
[1]; Cricetulus griseus, 24 h
  maximal fold induction: 3.21
[2]
  Lowest dose with toxicity: 10 µM
[3]
  Lowest dose with toxicity: none
[4]
  Lowest dose with toxicity: none

## C=C(C)/C=C1/C=CC(=O)C(C)=C1 [Retusoquinone]
[1]; Chinese hamster, 24 h
  Lowest dose with toxicity: 100 µM
[1]; [6]
  EC50: ~35 µM
[1]; Cricetulus griseus, 24 h
  maximal fold induction: 2.04
[2]
  Lowest dose with toxicity: none
[3]
  Lowest dose with toxicity: none
[4]
  Lowest dose with toxicity: none

## CC(C)(C)c1cc(O)ccc1O [tBHQ, tert-Butyl Hydroquinone, reference compound]
[1]
  toxicity at concentrations higher than peak expression: signs of toxicity
[1]; control TK-GFP CHO cell line
  fluorescence in the control TK-GFP cell line: No increase in fluorescence
[1]; narrow window, 24 h, serum free medium
  concentration of peak ARE activation (GFP expression): 10 µM
